The values below come from patent US12707888B2, “Asymmetric donor-acceptor molecular dyes” (THE UNIVERSITY OF NORTH CAROLINA AT CHARLOTTE, priority 2019, dated 2026).

Molecules are shown by their SMILES.

Data set [1] in a line: UV-Vis absorbance, fluorescence emission and quantum yield in organic solvents. In kind it is physicochemical. Particulars: for peak absorbance λmax, abs: in DCM. The procedure:
The absorption, emission, and fluorescence lifetime characteristics of all four TTz dyes were recorded in a variety of organic solvents (FIGS. 7A-7B, Table of FIG. 8). Additionally, HOMO/LUMO levels of the TTz dyes were determined computationally in Spartan 16 using B3LYP/6-31g. Molar absorptivities of all the TTz dyes ranged from 13,000 to 86,000 cm^−1M^−1. […] However, the peak absorbance of Bu2N-TTz-Py in DCM was slightly red-shifted as compared to that of Ph2N-TTz-Py (λmax, abs=429 nm vs λmax, abs=422 nm in DCM), which is attributed to the diphenylamine moiety having weaker donor characteristics. […] Due to the low estimated ground state dipole moments of the TTz dyes (μ=6-8 D), their wavelengths of absorbance remained relatively solvent independent (st. dev.=±11 nm).
4-pyridine carboxaldehyde, 4-(dibutylamino)benzaldehyde, 4-(diphenylamino)benzaldehyde, terephthalaldehyde, dithiooxamide, and all solvents used for spectroscopic measurements were purchased from Sigma-Aldrich and used without further purification. ^1H and ^13CNMR measurements were obtained with either a JEOL 300 MHz NMR or a JEOL 500 MHz NMR. High resolution mass spectra were obtained using a Thermo Fisher Scientific MSQ Plus Single Quadrupole Mass Spectrometer. Solution-state UV-Vis spectra were collected on a Cary 300 UV-Vis spectrophotometer. Time-resolved measurements were taken on a Jobin Yvon-Spex Fluorolog equipped with a 389 nm diode laser for time-resolved PL decay measurements. Igor Pro 6.3 software was used to fit PL(t) decay data to single/multiple exponential decays. Quantum yields were calculated using 9,10-diphenylanthracene as a reference (quantum yield [ΦF] in cyclohexane=0.97).^40-41 Density functional theory (DFT) calculations were performed with Spartan computational software using B3LYP^42-43 density functional and 6-31G*^44 basis set. Temperature studies were conducted using a 10 μM Bu2N-TTz-Py MeTHF solution placed inside of a Norrell 502 NMR tube and sequentially submerged in the following liquid N2 baths:octanol (−16° C.), acetonitrile (−41° C.), acetone (−94° C.), pentane (−131° C.), MeTHF (−136° C.), and liquid N2 itself (−196° C.). The phosphorescence spectrum of Bu2N-TTz-Py (see S2) was collected similarly at −196° C. by pumping with 389 nm light while inside a liquid nitrogen bath and then probing the emission within 2 sec of removing from the bath. Human embryonic kidney cells (HEK 293T) were a kind gift from Prof. Bryan Dickinson, and Mouse macrophage J774A.1 cells were a kind gift from Prof. Deborah Nelson at the University of Chicago. Cells were cultured in Dulbecco's Modified Eagle's Medium (Invitrogen Corporation, USA) containing 10% heat inactivated Fetal Bovine Serum (FBS) (Invitrogen Corporation, USA), 100 U/mL penicillin, and 100 μg/mL streptomycin. Cells were maintained at 37° C. under 5% CO2.

Data set [2] is described as follows: Lippert-Mataga analysis of excited state dipole moments. In kind it is physicochemical. Particulars: semi-empirically calculated using the Lippert-Mataga equation. How it is done:
The calculated HOMOs/LUMOs indicate that the strong solvatofluorochromism arises from an ICT mechanism, whereby the ground state has significant electron localization on the donor side of the molecule whereas the electron density shifts to the acceptor moiety in the excited state. To more directly quantify the strong ICT character of the TTz dyes, the excited-state dipole moments were calculated using the Lippert-Mataga equation (Eq 1):
[formula] where va and vf are the wavenumbers of the absorption and emission peaks in cm^−1, respectively; μ* and μ are the excited state and ground state dipoles, respectively; ϵ0 is the vacuum permittivity, h is Planck's constant, c is the speed of light, a is the Onsager cavity radius, Δf is the orientation polarizability, ϵ is the relative permittivity, and η is the refractive index. The dipoles were calculated using Spartan 2016 software, and the Onsager cavity radii were calculated using Gaussian '09 software.
FIGS. 9A and 9B show the Stokes shift of Bu2N-TTz-Py and Ph2N-TTz-COOH versus Δf, respectively. From the slopes of the Lippert-Mataga plots, the change between the dipole moments of the ground and excited states can be determined. Even though the Lippert-Mataga equation assumes no specific solvent-solute interactions (e.g. hydrogen bonding) and ignores solute polarizability, high degrees of linearity are apparent; and therefore, the estimations of the excited state dipoles are regarded as reliable. […] Perhaps owing to the minimal solvent interactions and rapid vibrational relaxation, the estimated changes in dipole moments (Δμ) are remarkably large (Table IV). […] Therefore, it is expected that these asymmetric TTzs dyes would be well suited to give high sensitivity in sensing applications whereby small changes in the polarity of the environment can lead to large differences in the wavelengths of fluorescence.

The conditions of data set [3]: in cyclohexane; cited from earlier work.
Data set [4] in a line: TCSPC fluorescence lifetime in solvents. Type of data set: physicochemical. The text has this:
TCSPC measurements of the TTz dyes show a general upward trend for fluorescent lifetimes as the polarity increases in aprotic solvents—from 1.50-1.89 ns in nonpolar solvents to ~3.00 ns in polar, aprotic solvents (Table of FIG. 8). The fluorescence lifetimes in protic solvents have the opposite trend; that is, a decrease in the fluorescence lifetime as the polarity increases (e.g. for Ph2N-TTz-COOH: τf, iPrOH=2.40 ns, τf, MeOH=1.80 ns). The trend reversal in the fluorescence lifetime can most likely be attributed to the presence of hydrogen bonding in protic solvents. […] At the same time, the non-radiative rates of each TTz generally increases as solvent polarity increases. […] Regardless, the fact that the fluorescence lifetimes are solvent dependent opens up the possibility of using these TTz dyes for measuring micelle formation and viscosity in living cells using fluorescence lifetime imaging (FLIM).
4-pyridine carboxaldehyde, 4-(dibutylamino)benzaldehyde, 4-(diphenylamino)benzaldehyde, terephthalaldehyde, dithiooxamide, and all solvents used for spectroscopic measurements were purchased from Sigma-Aldrich and used without further purification. ^1H and ^13CNMR measurements were obtained with either a JEOL 300 MHz NMR or a JEOL 500 MHz NMR. High resolution mass spectra were obtained using a Thermo Fisher Scientific MSQ Plus Single Quadrupole Mass Spectrometer. […]

In the case of `O=Cc1ccc(-c2nc3sc(-c4ccc(N(c5ccccc5)c5ccccc5)cc4)nc3s2)cc1` [Ph2N-TTz-CHO, 2-(N,N-diphenyl-4-aminophenyl)-5-(4-formylphenyl) thiazolo[5,4-d]thiazole], in data set [1], the “peak absorbance λmax, abs” value was 434 nm. In data set [2], the “Change in Dipole Δμ” value is given as 18.0 D and the “Excited State Dipole μ*” value is on record as 24.9 D.
In the case of `c1ccc(-c2c3ccccc3c(-c3ccccc3)c3ccccc23)cc1` [9,10-diphenylanthracene], the “quantum yield [ΦF] of reference” value in data set [3] was 0.97.
For `c1ccc(N(c2ccccc2)c2ccc(-c3nc4sc(-c5ccncc5)nc4s3)cc2)cc1` [Ph2N-TTz-Py, 2-(N,N-diphenyl-4-aminophenyl)-5-(4-pyridyl) thiazolo[5,4-d]thiazole], the “peak absorbance λmax, abs” value in data set [1] came out at 422 nm. Further, the “largest Stokes shift” value in data set [1] (largest across solvents) is listed as 0.750 eV. Also, in data set [2], the “Change in Dipole Δμ” value is recorded as 14.6 D and the “Excited State Dipole μ*” value is on record as 20.8 D.
Consider `O=C(O)c1ccc(-c2nc3sc(-c4ccc(N(c5ccccc5)c5ccccc5)cc4)nc3s2)cc1` [Ph2N-TTz-COOH, 2-(N,N-diphenyl-4-aminophenyl)-5-(4-carboxyphenyl) thiazolo[5,4-d]thiazole], for which, in data set [4] (MeOH), the “fluorescence lifetime τf, MeOH” value stood at 1.80 ns. Also, the “fluorescence lifetime τf, iPrOH” value in data set [4] (iPrOH) was 2.40 ns. For the same compound, in data set [2], the “Change in Dipole Δμ” value was 13.0 D and the “Excited State Dipole μ*” value is 21.3 D.
